ChEMBL document CHEMBL4364276, “Discovery of 4-phenyl-2H-benzo[b][1,4]oxazin-3(4H)-one derivatives as potent and orally active PI3K/mTOR dual inhibitors” (Eur J Med Chem, 2019)

Columns and labels:
[1] = Cmax in Sprague-Dawley rat at 10 mg/kg, po measured upto 24 hrs by LC-MS/MS analysis; assay type: ADME, organism-based; parameters: dose 10 mg/kg, route oral; settings: in vivo
[2] = target: RAC-alpha serine/threonine-protein kinase (Homo sapiens) (UniProt P31749); test: Inhibition of human AKT1 at 100 nM using KGSGSGRPRTSSFAEG as substrate by [gamma-33P]-ATP assay
[3] = target: Activin receptor type-1-like (Homo sapiens) (UniProt P37023); test: Inhibition of human ALK1 at 100 nM using casein as substrate by [gamma-33P]-ATP assay
[4] = target: Bone morphogenetic protein receptor type-1B (Homo sapiens) (UniProt O00238); test: Inhibition of human ALK6 at 100 nM using casein as substrate by [gamma-33P]-ATP assay
[5] = target: Calcium/calmodulin-dependent protein kinase type 1 (Homo sapiens) (UniProt Q14012); test: Inhibition of human CAMK1A at 100 nM using KKALRRQETVDAL as substrate by [gamma-33P]-ATP assay
[6] = target: Calcium/calmodulin-dependent protein kinase type 1D (Homo sapiens) (UniProt Q8IU85); test: Inhibition of human CAMK1D at 100 nM using KKALRRQETVDAL as substrate by [gamma-33P]-ATP assay
[7] = target: Calcium/calmodulin-dependent protein kinase type II subunit delta (Homo sapiens) (UniProt Q13557); test: Inhibition of human CAMK2D at 100 nM using KKLNRTLSFAEPG as substrate by [gamma-33P]-ATP assay
[8] = target: Casein kinase I isoform alpha-like (Homo sapiens) (UniProt Q8N752); test: Inhibition of human CK1a1L at 100 nM using KRRRAL[pS]VASLPGL as substrate by [gamma-33P]-ATP assay
[9] = target: Casein kinase I isoform gamma-1 (Homo sapiens) (UniProt Q9HCP0); test: Inhibition of human CK1gamma1 at 100 nM using KRRRAL[pS]VASLPGL as substrate by [gamma-33P]-ATP assay
[10] = target: Dual specificity protein kinase CLK1 (Homo sapiens) (UniProt P49759); test: Inhibition of human CLK1 at 100 nM using MBP as substrate by [gamma-33P]-ATP assay
[11] = target: Death-associated protein kinase 2 (Homo sapiens) (UniProt Q9UIK4); test: Inhibition of human DAPK2 at 100 nM using KKLNRTLSFAEPG as substrate by [gamma-33P]-ATP assay
[12] = target: Serine/threonine-protein kinase DCLK1 (Homo sapiens) (UniProt O15075); test: Inhibition of human DCAMKL1 at 100 nM using KKLNRTLSFAEPG as substrate by [gamma-33P]-ATP assay
[13] = target: Serine/threonine-protein kinase DCLK2 (Homo sapiens) (UniProt Q8N568); test: Inhibition of human DCAMKL2 at 100 nM using KKLNRTLSFAEPG as substrate by [gamma-33P]-ATP assay
[14] = target: Discoidin domain-containing receptor 2 (Homo sapiens) (UniProt Q16832); test: Inhibition of human DDR2 at 100 nM using KKSRGDYMTMQIG as substrate by [gamma-33P]-ATP assay
[15] = target: Serine/threonine-protein kinase 17A (Homo sapiens) (UniProt Q9UEE5); test: Inhibition of human DRAK1 at 100 nM using KKLNRTLSFAEPG as substrate by [gamma-33P]-ATP assay
[16] = target: Ephrin type-B receptor 4 (Homo sapiens) (UniProt P54760); test: Inhibition of human EPHB4 at 100 nM using poly[Glu:Tyr] (4:1) as substrate by [gamma-33P]-ATP assay
[17] = target: Tyrosine-protein kinase HCK (Homo sapiens) (UniProt P08631); test: Inhibition of human HCK at 100 nM using KVEKIGEGTYGVVYK as substrate by [gamma-33P]-ATP assay
[18] = target: Homeodomain-interacting protein kinase 2 (Homo sapiens) (UniProt Q9H2X6); test: Inhibition of human HIPK2 at 100 nM using MBP as substrate by [gamma-33P]-ATP assay
[19] = target: Mitogen-activated protein kinase 8 (Homo sapiens) (UniProt P45983); test: Inhibition of human JNK1 at 100 nM using ATF2 as substrate by [gamma-33P]-ATP assay
[20] = target: Serine/threonine-protein kinase STK11 (Homo sapiens) (UniProt Q15831); test: Inhibition of human LKB1 at 100 nM using LSNLYHQGKFLQTFCGSPLYRRR as substrate by [gamma-33P]-ATP assay
[21] = target: MAP kinase-activated protein kinase 3 (Homo sapiens) (UniProt Q16644); test: Inhibition of human MAPKAPK3 at 100 nM using KKLNRTLSVA as substrate by [gamma-33P]-ATP assay
[22] = target: Myosin light chain kinase family member 4 (Homo sapiens) (UniProt Q86YV6); test: Inhibition of human MYLK4 at 100 nM using KKRPQRRYSNVF as substrate by [gamma-33P]-ATP assay
[23] = target: Mitogen-activated protein kinase 13 (Homo sapiens) (UniProt O15264); test: Inhibition of human p38delta at 100 nM using MBP as substrate by [gamma-33P]-ATP assay
[24] = target: Serine/threonine-protein kinase PAK 3 (Homo sapiens) (UniProt O75914); test: Inhibition of human PAK3 at 100 nM using RRRLSFAEPG as substrate by [gamma-33P]-ATP assay
[25] = target: Serine/threonine-protein kinase pim-2 (Homo sapiens) (UniProt Q9P1W9); test: Inhibition of human PIM2 at 100 nM using RSRHSSYPAGT as substrate by [gamma-33P]-ATP assay
[26] = target: Serine/threonine-protein kinase pim-3 (Homo sapiens) (UniProt Q86V86); test: Inhibition of human PIM3 at 100 nM using RSRHSSYPAGT as substrate by [gamma-33P]-ATP assay
[27] = target: RAF proto-oncogene serine/threonine-protein kinase (Homo sapiens) (UniProt P04049); test: Inhibition of human RAF1 at 100 nM using MEK1 as substrate by [gamma-33P]-ATP assay
[28] = target: Macrophage-stimulating protein receptor (Homo sapiens) (UniProt Q04912); test: Inhibition of human RON at 100 nM using KKSRGDYMTMQIG as substrate by [gamma-33P]-ATP assay
[29] = target: Serine/threonine-protein kinase SIK2 (Homo sapiens) (UniProt Q9H0K1); test: Inhibition of human SIK2 at 100 nM using AMARAASAAALARRR as substrate by [gamma-33P]-ATP assay
[30] = target: Serine/threonine-protein kinase TBK1 (Homo sapiens) (UniProt Q9UHD2); test: Inhibition of human TBK1 at 100 nM using KRRRAL[pS]VASLPGL as substrate by [gamma-33P]-ATP assay
[31] = target: High affinity nerve growth factor receptor (Homo sapiens) (UniProt P04629); test: Inhibition of human TRKA at 100 nM using poly[Glu:Tyr] (4:1) as substrate by [gamma-33P]-ATP assay

Dual specificity protein kinase CLK1 (Homo sapiens), sequence (P49759 whole entry, looked up): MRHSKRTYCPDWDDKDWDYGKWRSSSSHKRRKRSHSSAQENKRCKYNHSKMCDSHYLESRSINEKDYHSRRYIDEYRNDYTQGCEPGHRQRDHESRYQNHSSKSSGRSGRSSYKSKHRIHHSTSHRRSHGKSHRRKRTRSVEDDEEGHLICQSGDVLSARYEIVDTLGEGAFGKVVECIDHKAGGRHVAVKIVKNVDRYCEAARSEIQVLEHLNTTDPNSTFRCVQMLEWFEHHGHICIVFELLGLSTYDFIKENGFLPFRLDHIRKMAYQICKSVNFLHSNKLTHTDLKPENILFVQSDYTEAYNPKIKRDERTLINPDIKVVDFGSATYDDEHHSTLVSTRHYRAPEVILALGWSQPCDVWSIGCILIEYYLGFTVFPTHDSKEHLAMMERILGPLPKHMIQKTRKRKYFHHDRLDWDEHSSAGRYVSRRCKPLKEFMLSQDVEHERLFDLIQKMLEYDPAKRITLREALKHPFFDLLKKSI
Casein kinase I isoform gamma-1 (Homo sapiens), sequence (Q9HCP0 whole entry, looked up, canonical isoform): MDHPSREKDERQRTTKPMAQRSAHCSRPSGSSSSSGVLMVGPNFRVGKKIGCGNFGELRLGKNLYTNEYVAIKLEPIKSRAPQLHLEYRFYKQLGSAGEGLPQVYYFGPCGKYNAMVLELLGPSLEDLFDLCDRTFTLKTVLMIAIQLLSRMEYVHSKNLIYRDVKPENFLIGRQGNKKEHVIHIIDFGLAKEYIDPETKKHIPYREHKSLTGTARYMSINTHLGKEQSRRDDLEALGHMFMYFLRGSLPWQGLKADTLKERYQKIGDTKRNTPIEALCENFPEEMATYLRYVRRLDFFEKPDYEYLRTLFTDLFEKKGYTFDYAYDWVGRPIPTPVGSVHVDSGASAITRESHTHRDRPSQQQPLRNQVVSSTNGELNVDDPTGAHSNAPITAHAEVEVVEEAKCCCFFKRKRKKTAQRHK
Serine/threonine-protein kinase PAK 3 (Homo sapiens), sequence (O75914 whole entry, looked up): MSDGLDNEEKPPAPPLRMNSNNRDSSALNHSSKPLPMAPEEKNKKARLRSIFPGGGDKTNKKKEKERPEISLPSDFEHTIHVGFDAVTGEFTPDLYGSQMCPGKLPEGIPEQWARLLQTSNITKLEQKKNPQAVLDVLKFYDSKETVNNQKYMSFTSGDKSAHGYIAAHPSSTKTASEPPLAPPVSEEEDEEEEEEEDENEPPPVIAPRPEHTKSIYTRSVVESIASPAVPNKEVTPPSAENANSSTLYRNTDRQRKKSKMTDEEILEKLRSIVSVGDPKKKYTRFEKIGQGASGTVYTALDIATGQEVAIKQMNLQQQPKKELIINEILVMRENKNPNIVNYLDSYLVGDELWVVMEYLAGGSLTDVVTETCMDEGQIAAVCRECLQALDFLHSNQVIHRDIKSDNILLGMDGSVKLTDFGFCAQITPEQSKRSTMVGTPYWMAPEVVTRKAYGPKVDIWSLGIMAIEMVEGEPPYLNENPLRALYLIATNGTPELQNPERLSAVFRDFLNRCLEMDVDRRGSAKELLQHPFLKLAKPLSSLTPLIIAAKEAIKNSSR
Calcium/calmodulin-dependent protein kinase type II subunit delta (Homo sapiens), sequence (Q13557 whole entry, canonical isoform): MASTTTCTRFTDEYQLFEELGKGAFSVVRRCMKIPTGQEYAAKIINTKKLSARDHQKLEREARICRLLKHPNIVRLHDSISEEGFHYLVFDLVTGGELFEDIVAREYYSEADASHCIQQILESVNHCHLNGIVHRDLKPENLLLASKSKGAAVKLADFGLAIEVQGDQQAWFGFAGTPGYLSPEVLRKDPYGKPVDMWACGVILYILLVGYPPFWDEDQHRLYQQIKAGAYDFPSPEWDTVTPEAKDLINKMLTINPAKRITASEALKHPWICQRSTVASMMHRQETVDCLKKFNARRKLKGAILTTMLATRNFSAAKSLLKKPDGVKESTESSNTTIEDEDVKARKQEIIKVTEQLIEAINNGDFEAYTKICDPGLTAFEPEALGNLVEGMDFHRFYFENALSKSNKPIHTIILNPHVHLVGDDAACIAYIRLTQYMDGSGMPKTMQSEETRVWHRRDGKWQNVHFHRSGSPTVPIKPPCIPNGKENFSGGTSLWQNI
Serine/threonine-protein kinase SIK2 (Homo sapiens), sequence (Q9H0K1 whole entry, looked up): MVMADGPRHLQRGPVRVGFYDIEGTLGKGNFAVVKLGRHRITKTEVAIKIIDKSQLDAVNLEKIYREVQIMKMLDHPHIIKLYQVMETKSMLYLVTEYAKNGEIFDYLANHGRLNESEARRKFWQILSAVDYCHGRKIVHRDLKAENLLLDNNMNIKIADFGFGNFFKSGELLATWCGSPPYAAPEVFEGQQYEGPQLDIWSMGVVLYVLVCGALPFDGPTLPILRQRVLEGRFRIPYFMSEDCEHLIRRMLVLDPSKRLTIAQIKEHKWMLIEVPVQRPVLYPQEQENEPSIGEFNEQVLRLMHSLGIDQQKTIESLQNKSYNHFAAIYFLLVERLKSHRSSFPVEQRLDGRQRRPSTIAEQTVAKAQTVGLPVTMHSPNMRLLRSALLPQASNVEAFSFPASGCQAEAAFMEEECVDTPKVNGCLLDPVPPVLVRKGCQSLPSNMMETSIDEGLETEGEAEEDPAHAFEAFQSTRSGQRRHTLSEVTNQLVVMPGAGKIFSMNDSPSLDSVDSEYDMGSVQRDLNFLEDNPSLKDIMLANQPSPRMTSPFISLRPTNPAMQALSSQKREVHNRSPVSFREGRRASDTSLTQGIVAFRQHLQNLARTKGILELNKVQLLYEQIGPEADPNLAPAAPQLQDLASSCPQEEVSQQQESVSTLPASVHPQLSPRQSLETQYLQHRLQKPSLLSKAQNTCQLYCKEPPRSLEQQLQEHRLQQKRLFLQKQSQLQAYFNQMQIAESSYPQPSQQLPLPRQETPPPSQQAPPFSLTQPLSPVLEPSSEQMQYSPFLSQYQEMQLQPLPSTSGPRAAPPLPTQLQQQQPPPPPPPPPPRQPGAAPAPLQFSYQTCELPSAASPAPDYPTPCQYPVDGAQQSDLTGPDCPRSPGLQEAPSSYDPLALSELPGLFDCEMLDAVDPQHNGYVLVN
Serine/threonine-protein kinase 17A (Homo sapiens), sequence (Q9UEE5 whole entry): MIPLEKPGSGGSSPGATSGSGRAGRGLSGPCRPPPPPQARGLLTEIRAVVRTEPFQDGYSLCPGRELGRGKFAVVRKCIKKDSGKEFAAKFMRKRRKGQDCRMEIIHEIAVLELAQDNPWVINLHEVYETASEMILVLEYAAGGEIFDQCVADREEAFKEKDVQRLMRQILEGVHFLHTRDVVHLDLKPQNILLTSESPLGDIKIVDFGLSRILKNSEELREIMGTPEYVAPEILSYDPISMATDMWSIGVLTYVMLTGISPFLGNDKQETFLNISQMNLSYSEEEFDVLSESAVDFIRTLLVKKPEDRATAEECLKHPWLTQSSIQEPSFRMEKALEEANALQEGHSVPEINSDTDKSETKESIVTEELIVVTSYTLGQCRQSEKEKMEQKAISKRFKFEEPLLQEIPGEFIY
RAC-alpha serine/threonine-protein kinase (Homo sapiens), sequence (P31749 whole entry): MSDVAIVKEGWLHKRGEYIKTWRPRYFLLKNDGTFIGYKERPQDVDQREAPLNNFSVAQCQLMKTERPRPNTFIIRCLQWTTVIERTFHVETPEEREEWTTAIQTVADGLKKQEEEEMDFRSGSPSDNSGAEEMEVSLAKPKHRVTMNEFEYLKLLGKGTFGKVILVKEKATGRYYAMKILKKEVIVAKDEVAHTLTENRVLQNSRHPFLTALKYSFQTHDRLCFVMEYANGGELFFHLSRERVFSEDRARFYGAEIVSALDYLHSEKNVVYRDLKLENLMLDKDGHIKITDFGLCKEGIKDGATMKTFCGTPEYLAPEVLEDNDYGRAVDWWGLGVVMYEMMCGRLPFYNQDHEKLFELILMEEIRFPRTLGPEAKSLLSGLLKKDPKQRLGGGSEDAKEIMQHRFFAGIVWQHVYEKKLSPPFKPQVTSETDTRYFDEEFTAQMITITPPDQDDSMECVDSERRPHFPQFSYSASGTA
Serine/threonine-protein kinase DCLK1 (Homo sapiens), sequence (O15075 whole entry): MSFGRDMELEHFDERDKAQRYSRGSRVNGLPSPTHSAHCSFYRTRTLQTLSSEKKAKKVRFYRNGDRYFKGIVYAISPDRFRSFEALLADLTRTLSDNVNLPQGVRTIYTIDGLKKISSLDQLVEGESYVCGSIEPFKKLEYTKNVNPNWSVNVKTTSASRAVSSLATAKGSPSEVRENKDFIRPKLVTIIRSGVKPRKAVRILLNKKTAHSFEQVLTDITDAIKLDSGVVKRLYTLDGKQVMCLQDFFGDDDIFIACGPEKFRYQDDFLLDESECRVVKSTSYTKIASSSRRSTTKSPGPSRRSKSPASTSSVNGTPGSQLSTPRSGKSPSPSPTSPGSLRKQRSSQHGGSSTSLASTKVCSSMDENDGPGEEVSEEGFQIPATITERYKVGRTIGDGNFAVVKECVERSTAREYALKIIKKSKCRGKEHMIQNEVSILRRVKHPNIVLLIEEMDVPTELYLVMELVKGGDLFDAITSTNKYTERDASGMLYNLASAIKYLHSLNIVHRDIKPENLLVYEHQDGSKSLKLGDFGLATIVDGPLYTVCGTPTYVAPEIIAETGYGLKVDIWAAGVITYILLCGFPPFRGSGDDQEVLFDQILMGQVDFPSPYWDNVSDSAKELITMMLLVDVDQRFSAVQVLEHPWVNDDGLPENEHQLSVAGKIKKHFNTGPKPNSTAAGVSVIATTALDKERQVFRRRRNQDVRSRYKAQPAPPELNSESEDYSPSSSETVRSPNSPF
MAP kinase-activated protein kinase 3 (Homo sapiens), sequence (Q16644 whole entry, looked up): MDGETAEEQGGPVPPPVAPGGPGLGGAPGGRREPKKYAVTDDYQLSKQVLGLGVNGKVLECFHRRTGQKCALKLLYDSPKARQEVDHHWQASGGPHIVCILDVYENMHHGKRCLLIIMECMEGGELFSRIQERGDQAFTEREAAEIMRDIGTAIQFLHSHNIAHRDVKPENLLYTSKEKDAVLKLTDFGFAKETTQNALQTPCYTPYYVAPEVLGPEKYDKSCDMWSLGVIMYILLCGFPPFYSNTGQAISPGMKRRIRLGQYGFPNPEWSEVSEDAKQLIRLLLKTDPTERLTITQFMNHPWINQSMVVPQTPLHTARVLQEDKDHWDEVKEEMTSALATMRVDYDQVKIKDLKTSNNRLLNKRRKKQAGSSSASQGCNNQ

For COc1ccc(N2C(=O)COc3ccc(-c4cnc(OC)c(NS(=O)(=O)c5ccc(F)cc5)c4)cc32)cc1, the Cmax [1] was 887 ng/mL, the inhibition [2] was 18.2% and the inhibition [3] was -8.35%. It also gave an inhibition [4] of 2.39%, an inhibition [5] of 1.42% and an inhibition [6] of 0%. For the same compound, the inhibition [7] was 22.6%, the inhibition [8] was -6.28% and the inhibition [9] was 6.26%. The inhibition [10] was 7.77%, the inhibition [11] was -3.64% and the inhibition [12] was -5.81%. For the same compound, the inhibition [13] was 2.1%, the inhibition [14] was -1.84% and the inhibition [15] was 0.44%. The inhibition [16] was 15.9%, the inhibition [17] was 7.23% and the inhibition [18] was -4.94%. The inhibition [19] was -0.95%, the inhibition [20] was -3.12% and the inhibition [21] was 12.8%. The inhibition [22] was 7.06%, the inhibition [23] was 13.9% and the inhibition [24] was 4.51%. The inhibition [25] was 0.23%, the inhibition [26] was -9.8% and the inhibition [27] was -0.03%. For the same compound, the inhibition [28] was -0.5%, the inhibition [29] was -3.42% and the inhibition [30] was 5.37%. It also gave an inhibition [31] of 5.12%.
